Patent US20260297085A1, “1 H-PYRROLO[2,3-B]PYRIDIN-4-YL]-2-OXOPYRROLIDINE-3-CARBONITRILE DERIVATIVES AS TYROSINE KINASE 2 (TYK2) INHIBITORS FOR THE TREATMENT OF INFLAMMATORY DISEASES” (BIOGEN MA INC., priority 2023, published 2026)

Key:
[1] = target: T1, human JAK2 kinase domain (JH1) (Homo sapiens, UniProt O60674); assay: JH1 biochemical assay for JAK2 (ADP-Glo kinase assay, recombinant JH1 catalytic domain, JAK3-974 peptide, 15 μM ATP)
T1 construct: recombinantly generated catalytic kinase (also known as JH1) domain of human JAK1, JAK2, JAK3 and TYK2
In short: (§1)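 Kinase 4 nM JAK1 / 0.2 nM JAK2 / 0.3 nM JAK3 / 2 nM TYK2; 50 μM peptide; 100 min. Unused ATP depleted, ADP→ATP, luciferase luminescence. 11-pt 3-fold series from 10 or 1 μM; normalized, 4PL fit → IC50.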

[2] = target: Tyk2 kinase activity on STAT4 in NK92 cells (Homo sapiens, UniProt P29597); assay: pSTAT4 cell assay (MSD; NK92 cells, 30 ng/mL IL2 stimulation); assay type: cell-based; conditions: 30 ng/mL IL2, 15 minutes
In short: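 Read-out: phospho-STAT in NK92 lysates, MSD format, anti-STAT4 antibodies. Cells were serum-starved, given compound for 1 hr (10 μM top, four-fold, 10 points) and IL2-stimulated (30 ng/mL, 15 min). Normalized percent activity vs log concentration, 4-parameter logistic fit gave IC50.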

[3] = target: T2, human JAK1 kinase domain (JH1) (Homo sapiens, UniProt P23458); assay: JH1 biochemical assay for JAK1 (ADP-Glo kinase assay, recombinant JH1 catalytic domain, JAK3-342 peptide, 35 μM ATP)
T2 construct: recombinantly generated catalytic kinase (also known as JH1) domain of human JAK1, JAK2, JAK3 and TYK2
In short: as §1

[4] = target: T3, human TYK2 kinase domain (JH1) (Homo sapiens, UniProt P29597); assay: JH1 biochemical assay for TYK2 (ADP-Glo kinase assay, recombinant JH1 catalytic domain, JAK3-974 peptide, 10 μM ATP)
T3 construct: recombinantly generated catalytic kinase (also known as JH1) domain of human JAK1, JAK2, JAK3 and TYK2
T3 sequence (P29597 897-1176 limits assumed): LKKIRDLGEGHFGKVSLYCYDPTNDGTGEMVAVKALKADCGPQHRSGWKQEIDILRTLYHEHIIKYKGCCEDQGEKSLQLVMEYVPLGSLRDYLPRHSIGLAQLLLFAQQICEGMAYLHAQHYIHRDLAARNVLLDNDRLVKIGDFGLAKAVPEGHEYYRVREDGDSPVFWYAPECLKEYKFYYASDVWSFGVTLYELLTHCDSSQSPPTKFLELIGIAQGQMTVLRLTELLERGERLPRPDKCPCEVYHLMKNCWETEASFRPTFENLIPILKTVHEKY
In short: as §1

[5] = target: JAK1 kinase activity on STAT3 in TF1 cells (Homo sapiens, UniProt P23458); assay: pSTAT3 cell assay (MSD; TF1 cells, 30 ng/mL IL-6 stimulation); assay type: cell-based; conditions: 30 ng/mL IL-6, 15 minutes
In short: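 Serum starvation, 1 h compound (10 pt, 4-fold from 10 μM), IL-6 15 min, lysis. pSTAT3 read by MSD immunoassay, anti-STAT3 Abs. Normalized % activity vs log[cpd], 4-PL fit → IC50.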

[6] = target: T4, human JAK3 kinase domain (JH1) (Homo sapiens, UniProt P52333); assay: JH1 biochemical assay for JAK3 (ADP-Glo kinase assay, recombinant JH1 catalytic domain, JAK3-974 peptide, 4 μM ATP)
T4 construct: recombinantly generated catalytic kinase (also known as JH1) domain of human JAK1, JAK2, JAK3 and TYK2
In short: as §1

[7] = target: JAK2 kinase activity on STAT5 in TF1 cells (Homo sapiens, UniProt O60674); assay: pSTAT5 cell assay (MSD; TF1 cells, 30 ng/mL IL-3 stimulation); assay type: cell-based; conditions: 30 ng/mL IL-3, 15 minutes
In short: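 IC50 from a 4-parameter logistic fit of normalized pSTAT5 signal, measured by MSD in lysates of TF1 cells. Cells were serum-starved, exposed to compound for 1 h (top concentration 10 μM, four-fold, 10 points), then given IL-3 at 30 ng/mL for 15 min.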

Chain of JAK2 kinase activity on STAT5 in TF1 cells (O60674 whole entry): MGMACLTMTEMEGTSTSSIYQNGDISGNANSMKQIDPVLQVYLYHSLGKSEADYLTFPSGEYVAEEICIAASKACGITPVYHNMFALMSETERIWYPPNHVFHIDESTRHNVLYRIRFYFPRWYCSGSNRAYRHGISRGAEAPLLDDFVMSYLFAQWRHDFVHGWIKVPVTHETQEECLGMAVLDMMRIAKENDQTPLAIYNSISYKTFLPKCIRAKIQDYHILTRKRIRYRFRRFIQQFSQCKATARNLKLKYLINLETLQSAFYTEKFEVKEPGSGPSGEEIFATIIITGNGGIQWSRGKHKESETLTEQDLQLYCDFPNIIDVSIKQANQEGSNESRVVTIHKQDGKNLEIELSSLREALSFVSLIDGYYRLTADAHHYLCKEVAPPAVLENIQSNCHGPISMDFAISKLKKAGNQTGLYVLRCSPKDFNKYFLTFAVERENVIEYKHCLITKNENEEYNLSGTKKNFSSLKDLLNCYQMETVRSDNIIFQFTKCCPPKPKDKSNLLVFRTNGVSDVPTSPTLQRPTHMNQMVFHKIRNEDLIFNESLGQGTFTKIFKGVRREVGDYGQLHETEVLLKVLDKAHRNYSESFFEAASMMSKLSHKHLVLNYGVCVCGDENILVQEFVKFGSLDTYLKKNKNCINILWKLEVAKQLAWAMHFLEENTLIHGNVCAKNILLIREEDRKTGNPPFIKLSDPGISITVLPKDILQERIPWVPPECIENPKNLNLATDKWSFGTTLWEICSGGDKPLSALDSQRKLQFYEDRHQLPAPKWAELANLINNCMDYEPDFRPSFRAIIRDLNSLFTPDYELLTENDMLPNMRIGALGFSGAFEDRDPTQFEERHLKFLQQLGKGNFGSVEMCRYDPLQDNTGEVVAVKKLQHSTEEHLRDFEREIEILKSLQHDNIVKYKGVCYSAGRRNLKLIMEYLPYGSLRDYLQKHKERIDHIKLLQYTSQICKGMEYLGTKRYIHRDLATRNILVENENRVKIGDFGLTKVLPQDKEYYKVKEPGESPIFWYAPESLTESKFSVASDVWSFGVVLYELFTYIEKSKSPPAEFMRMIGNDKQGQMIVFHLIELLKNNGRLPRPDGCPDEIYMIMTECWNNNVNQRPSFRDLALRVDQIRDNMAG
T1 sequence (O60674 849-1124 limits assumed): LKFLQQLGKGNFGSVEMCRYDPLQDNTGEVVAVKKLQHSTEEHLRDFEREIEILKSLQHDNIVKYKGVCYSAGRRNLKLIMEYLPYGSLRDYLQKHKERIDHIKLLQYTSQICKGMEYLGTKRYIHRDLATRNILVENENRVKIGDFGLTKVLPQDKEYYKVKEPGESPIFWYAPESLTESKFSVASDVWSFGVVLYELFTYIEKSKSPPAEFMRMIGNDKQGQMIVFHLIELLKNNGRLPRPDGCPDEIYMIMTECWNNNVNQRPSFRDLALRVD
T4 sequence (P52333 822-1111 limits assumed): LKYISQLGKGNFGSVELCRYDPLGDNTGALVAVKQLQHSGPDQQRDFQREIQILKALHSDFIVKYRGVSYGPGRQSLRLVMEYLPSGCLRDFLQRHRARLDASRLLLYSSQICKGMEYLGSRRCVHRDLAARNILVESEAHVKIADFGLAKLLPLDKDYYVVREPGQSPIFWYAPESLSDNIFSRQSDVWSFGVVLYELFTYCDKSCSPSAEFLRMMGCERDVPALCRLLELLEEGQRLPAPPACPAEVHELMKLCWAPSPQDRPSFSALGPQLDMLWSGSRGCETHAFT
Chain of Tyk2 kinase activity on STAT4 in NK92 cells (P29597 whole entry): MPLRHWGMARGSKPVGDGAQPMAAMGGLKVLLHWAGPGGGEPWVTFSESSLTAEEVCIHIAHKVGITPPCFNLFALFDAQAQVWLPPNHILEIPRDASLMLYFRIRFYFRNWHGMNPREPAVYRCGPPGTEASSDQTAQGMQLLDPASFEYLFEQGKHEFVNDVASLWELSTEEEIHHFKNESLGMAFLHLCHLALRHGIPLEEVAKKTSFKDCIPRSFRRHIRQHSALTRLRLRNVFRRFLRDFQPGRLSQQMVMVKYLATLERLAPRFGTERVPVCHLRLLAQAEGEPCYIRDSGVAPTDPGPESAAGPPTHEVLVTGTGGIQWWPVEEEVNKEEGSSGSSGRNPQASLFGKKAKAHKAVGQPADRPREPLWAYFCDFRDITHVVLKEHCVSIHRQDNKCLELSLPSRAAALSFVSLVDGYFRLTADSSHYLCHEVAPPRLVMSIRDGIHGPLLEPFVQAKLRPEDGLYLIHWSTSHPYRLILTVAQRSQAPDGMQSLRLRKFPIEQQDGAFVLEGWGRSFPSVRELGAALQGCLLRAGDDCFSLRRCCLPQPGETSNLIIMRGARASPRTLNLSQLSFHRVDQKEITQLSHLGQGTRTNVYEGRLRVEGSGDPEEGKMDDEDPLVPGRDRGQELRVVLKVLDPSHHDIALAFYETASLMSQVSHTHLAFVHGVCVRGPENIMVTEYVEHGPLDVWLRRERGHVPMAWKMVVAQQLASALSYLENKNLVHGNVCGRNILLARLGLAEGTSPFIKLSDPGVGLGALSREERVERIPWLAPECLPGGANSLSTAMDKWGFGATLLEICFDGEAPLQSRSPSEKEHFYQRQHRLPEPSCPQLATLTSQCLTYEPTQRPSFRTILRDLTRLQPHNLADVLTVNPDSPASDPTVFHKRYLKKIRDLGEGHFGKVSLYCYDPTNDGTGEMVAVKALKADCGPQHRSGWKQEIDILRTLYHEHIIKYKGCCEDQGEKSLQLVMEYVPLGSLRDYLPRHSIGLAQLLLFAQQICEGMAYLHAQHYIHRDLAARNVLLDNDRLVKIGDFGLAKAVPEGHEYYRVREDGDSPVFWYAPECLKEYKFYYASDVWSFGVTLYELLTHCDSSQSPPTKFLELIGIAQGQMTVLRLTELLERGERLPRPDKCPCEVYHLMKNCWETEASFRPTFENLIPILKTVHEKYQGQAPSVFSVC
Chain of JAK1 kinase activity on STAT3 in TF1 cells (P23458 whole entry): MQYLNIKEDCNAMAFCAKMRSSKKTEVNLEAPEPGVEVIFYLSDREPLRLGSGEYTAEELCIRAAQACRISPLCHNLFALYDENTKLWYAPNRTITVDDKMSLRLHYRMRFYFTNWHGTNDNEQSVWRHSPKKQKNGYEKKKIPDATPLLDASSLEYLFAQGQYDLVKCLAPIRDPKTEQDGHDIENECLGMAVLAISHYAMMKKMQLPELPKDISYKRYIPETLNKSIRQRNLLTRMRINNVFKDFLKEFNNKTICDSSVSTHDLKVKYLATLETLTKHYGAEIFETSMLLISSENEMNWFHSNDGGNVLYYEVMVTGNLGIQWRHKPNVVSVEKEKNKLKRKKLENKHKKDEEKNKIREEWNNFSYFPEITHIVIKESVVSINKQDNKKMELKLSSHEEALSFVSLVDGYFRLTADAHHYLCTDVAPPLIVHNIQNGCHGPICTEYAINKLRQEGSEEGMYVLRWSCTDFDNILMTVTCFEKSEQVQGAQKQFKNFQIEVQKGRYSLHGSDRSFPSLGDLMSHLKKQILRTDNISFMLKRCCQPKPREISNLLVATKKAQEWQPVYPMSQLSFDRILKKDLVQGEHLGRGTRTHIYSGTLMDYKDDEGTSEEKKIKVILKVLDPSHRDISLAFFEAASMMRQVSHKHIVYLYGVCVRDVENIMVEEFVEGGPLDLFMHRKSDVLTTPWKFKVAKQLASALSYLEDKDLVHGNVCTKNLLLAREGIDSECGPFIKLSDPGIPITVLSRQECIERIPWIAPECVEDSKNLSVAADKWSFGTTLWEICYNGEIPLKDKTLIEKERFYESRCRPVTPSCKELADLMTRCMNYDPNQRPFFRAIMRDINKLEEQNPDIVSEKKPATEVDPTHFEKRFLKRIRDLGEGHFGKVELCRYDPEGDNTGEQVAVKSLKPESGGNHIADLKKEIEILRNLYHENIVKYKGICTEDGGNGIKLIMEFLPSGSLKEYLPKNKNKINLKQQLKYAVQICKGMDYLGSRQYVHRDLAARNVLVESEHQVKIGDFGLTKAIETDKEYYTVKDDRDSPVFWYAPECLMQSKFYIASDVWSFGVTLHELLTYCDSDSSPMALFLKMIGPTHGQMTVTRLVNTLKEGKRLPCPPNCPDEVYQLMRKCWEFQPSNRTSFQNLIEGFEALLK
T2 sequence (P23458 875-1153 limits assumed): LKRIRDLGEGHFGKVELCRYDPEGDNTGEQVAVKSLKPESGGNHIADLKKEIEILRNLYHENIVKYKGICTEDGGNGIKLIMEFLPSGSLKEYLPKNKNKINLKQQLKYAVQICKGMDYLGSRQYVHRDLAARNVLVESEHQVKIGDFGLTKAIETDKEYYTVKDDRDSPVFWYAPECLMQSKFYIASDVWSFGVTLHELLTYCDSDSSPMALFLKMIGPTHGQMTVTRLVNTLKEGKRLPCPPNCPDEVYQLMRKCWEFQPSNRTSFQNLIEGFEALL

Row | Structure (SMILES) | IC50 ([1]; JAK2 JH1, ADP-Glo) | IC50 [2] | IC50 ([3]; JAK1 JH1, ADP-Glo) | IC50 ([4]; TYK2 JH1, ADP-Glo) | IC50 [5] | IC50 ([6]; JAK3 JH1, ADP-Glo) | IC50 [7] | IC50 ([1]; JH1 kinase domain, ADP-Glo) | IC50 ([3]; JH1 kinase domain, ADP-Glo) | IC50 ([4]; JH1 kinase domain, ADP-Glo) | IC50 ([6]; JH1 kinase domain, ADP-Glo)
1 | C[C@@H]1CN(c2nc(-c3cnn([C@H]4C[C@@](F)(C#N)C4)c3)cn3ncc(F)c23)C(=O)[C@]1(C#N)C1CC1 [Example 309, (3R,4S)-1-(6-(1-((1r,3R)-3-cyano-3-fluorocyclobutyl)-1H-pyrazol-4-yl)-3-fluoropyrazolo[1,5-a]pyrazin-4-yl)-3-cyclopropyl-4-methyl-2-oxopyrrolidine-3-carbonitrile] | < 100 nM | > 100 nM | < 100 nM | < 5 nM | 5 to 10 µM | < 100 nM | 1 to 5 µM |  |  |  | 
2 | Cc1cnn(-c2cc3c(N4C[C@@H](C)[C@@](C#N)(C5CC5)C4=O)ccnn3c2)c1 [Example 333, (3R,4S)-3-cyclopropyl-4-methyl-1-(6-(4-methyl-1H-pyrazol-1-yl)pyrrolo[1,2-b]pyridazin-4-yl)-2-oxopyrrolidine-3-carbonitrile] | 100 to 1000 nM | > 100 nM | 100 to 1000 nM | 5 to 20 nM | > 10 µM | 100 to 1000 nM | > 10 µM |  |  |  | 
3 | Cc1cncc(-c2cc3c(N4C[C@@H](C)[C@@](C#N)(C5CC5)C4=O)ccnn3c2)c1 [Example 71, (3R,4S)-3-cyclopropyl-4-methyl-1-(6-(5-methylpyridin-3-yl)pyrrolo[1,2-b]pyridazin-4-yl)-2-oxopyrrolidine-3-carbonitrile] |  | > 100 nM |  |  | 1 to 5 µM |  | > 10 µM | 100 to 1000 nM | 100 to 1000 nM | 5 to 20 nM | 100 to 1000 nM
4 | C[C@@H]1CN(c2nc(-c3cccnc3)cn3nccc23)C(=O)[C@]1(C#N)C1CC1 [Example 194, (3R,4S)-3-cyclopropyl-4-methyl-2-oxo-1-(6-(pyridin-3-yl)pyrazolo[1,5-a]pyrazin-4-yl)pyrrolidine-3-carbonitrile] |  | > 100 nM |  |  | 1 to 5 µM |  | 1 to 5 µM | 100 to 1000 nM | < 100 nM | < 5 nM | < 100 nM
5 | CC(=O)Nc1cc(-c2cc3c(N4C[C@@H](C)[C@@](C#N)(C5CC5)C4=O)ccnn3c2)ccn1 [Example 61, N-(4-(4-((3R,4S)-3-cyano-3-cyclopropyl-4-methyl-2-oxopyrrolidin-1-yl)pyrrolo[1,2-b]pyridazin-6-yl)pyridin-2-yl)acetamide] |  | 20 to 50 nM |  |  | 0.1 to 1 µM |  | 5 to 10 µM | 100 to 1000 nM | < 100 nM | < 5 nM | 100 to 1000 nM
6 | N#C[C@@]1(C2CC2)CCN(c2ccnn3cc(-c4cnn(C(F)F)c4)cc23)C1=O [Example 10, (S)-3-cyclopropyl-1-(6-(1-(difluoromethyl)-1H-pyrazol-4-yl)pyrrolo[1,2-b]pyridazin-4-yl)-2-oxopyrrolidine-3-carbonitrile] |  | > 100 nM |  |  | 1 to 5 µM |  | > 10 µM | 100 to 1000 nM | 100 to 1000 nM | 5 to 20 nM | 100 to 1000 nM
7 | C[C@@H]1CN(c2ccnn3cc(-c4cnn(-c5ccncc5)c4)cc23)C(=O)[C@]1(C#N)C1CC1 [Example 160, (3R,4S)-3-cyclopropyl-4-methyl-2-oxo-1-(6-(1-(pyridin-4-yl)-1H-pyrazol-4-yl)pyrrolo[1,2-b]pyridazin-4-yl)pyrrolidine-3-carbonitrile] |  | 50 to 100 nM |  |  | 1 to 5 µM |  | 1 to 5 µM | 100 to 1000 nM | 100 to 1000 nM | < 5 nM | 100 to 1000 nM
8 | C[C@@H]1CN(c2nn(-c3cnn(C(F)F)c3)c3cnccc23)C(=O)[C@]1(C#N)C1CC1 [Example 276, (3R,4S)-3-cyclopropyl-1-(1-(1-(difluoromethyl)-1H-pyrazol-4-yl)-1H-pyrazolo[3,4-c]pyridin-3-yl)-4-methyl-2-oxopyrrolidine-3-carbonitrile] | 1000 to 5000 nM | > 100 nM | 100 to 1000 nM | 5 to 20 nM | 5 to 10 µM | 100 to 1000 nM | > 10 µM |  |  |  | 
9 | C[C@@H]1CN(c2nc(-c3cnn(C)c3)cn3nccc23)C(=O)[C@]1(C#N)C1CC1 [Example 184, (3R,4S)-3-cyclopropyl-4-methyl-1-(6-(1-methyl-1H-pyrazol-4-yl)pyrazolo[1,5-a]pyrazin-4-yl)-2-oxopyrrolidine-3-carbonitrile] |  | 20 to 50 nM |  |  | 0.1 to 1 µM |  | 0.1 to 1 µM | < 100 nM | < 100 nM | < 5 nM | < 100 nM
10 | Cc1nn(C)cc1-c1cc2c(N3C[C@@H](C)[C@@](C#N)(C4CC4)C3=O)ccnn2c1 [Example 165, (3R,4S)-3-cyclopropyl-1-(6-(1,3-dimethyl-1H-pyrazol-4-yl)pyrrolo[1,2-b]pyridazin-4-yl)-4-methyl-2-oxopyrrolidine-3-carbonitrile] |  | 20 to 50 nM |  |  | 1 to 5 µM |  | 5 to 10 µM | 100 to 1000 nM | 100 to 1000 nM | < 5 nM | 100 to 1000 nM
11 | COc1cccc(-c2cn3nccc3c(N3C[C@@H](C)[C@@](C#N)(C4CC4)C3=O)n2)n1 [Example 193, (3R,4S)-3-cyclopropyl-1-(6-(6-methoxypyridin-2-yl)pyrazolo[1,5-a]pyrazin-4-yl)-4-methyl-2-oxopyrrolidine-3-carbonitrile] |  | > 100 nM |  |  | > 10 µM |  | > 10 µM | > 10000 nM | 100 to 1000 nM | 5 to 20 nM | > 10000 nM
12 | C[C@@H]1CN(c2nn(-c3cnn(C)c3)c3cnccc23)C(=O)[C@]1(C#N)C1CC1 [Example 275, (3R,4S)-3-cyclopropyl-4-methyl-1-(1-(1-methyl-1H-pyrazol-4-yl)-1H-pyrazolo[3,4-c]pyridin-3-yl)-2-oxopyrrolidine-3-carbonitrile] | 1000 to 5000 nM | > 100 nM | 100 to 1000 nM | 5 to 20 nM | 5 to 10 µM | 100 to 1000 nM | > 10 µM |  |  |  | 
13 | C[C@@H]1CN(c2ccnn3cc(-c4cnn(C5CC6(C5)CN(C)C6)c4)cc23)C(=O)[C@]1(C#N)C1CC1 [Example 315, (3R,4S)-3-cyclopropyl-4-methyl-1-(6-(1-(2-methyl-2-azaspiro[3.3]heptan-6-yl)-1H-pyrazol-4-yl)pyrrolo[1,2-b]pyridazin-4-yl)-2-oxopyrrolidine-3-carbonitrile] | 100 to 1000 nM | 50 to 100 nM | 100 to 1000 nM | < 5 nM | 1 to 5 µM | < 100 nM | 1 to 5 µM |  |  |  | 
14 | COc1cc(-c2cc3c(N4CC[C@@](C#N)(C5CC5)C4=O)ccnn3c2)ccn1 [Example 8, (S)-3-cyclopropyl-1-(6-(2-methoxypyridin-4-yl)pyrrolo[1,2-b]pyridazin-4-yl)-2-oxopyrrolidine-3-carbonitrile] |  | > 100 nM |  |  | 1 to 5 µM |  | 1 to 5 µM | 100 to 1000 nM | 100 to 1000 nM | 5 to 20 nM | 100 to 1000 nM
